This assay has as its system 233499-124-R-J3-PDC complex spheroid viability. Description: Anticancer human tumor 233499-124-R-J3-PDC patient-derived colon adenocarcinoma cell line growth inhibition [CLK]. Particulars: for viability, T/C: stronger effect = lower value. The source says:
A high-throughput screen of multi-cell type tumor spheroids was designed to identify active combinations of […] and targeted small molecules. Complex spheroids include a stromal component modeled by human endothelial cells (HUVEC) and fibroblasts modeled by human mesenchymal stem cells (MSCs). The concentration ranges selected for each drug and investigational agent were based upon clinically achievable concentrations if the clinical Cmax of the agent was known.
Compounds. The drugs and investigational agents: cirtuvivint (SM08502; NSC835563), CC-671 (NSC850746), vemurafenib (NSC761431), tapotoclax (NSC804041), sotorasib (NSC818433), adagrasib (NSC831453), MRTX-1133 (NSC836407), BAY2416964 (NSC825713), copanlisib (NSC816437), inavolisib (NSC800729), abemaciclib (NSC768073), osimertinib (NSC779217), entinostat (NSC756642), eltanexor (KPT-8602, NSC794443), venetoclax (NSC766270), ceralasertib (NSC777638), bortezomib (NSC756655), olaparib (NSC753686), talazoparib (NSC767125), alisertib (NSC759677), peposertib (NSC802822), gemcitabine (NSC613327), 5-fluorouracil (NSC19893), SN-38 (NSC673596), oxaliplatin (NSC266046), paclitaxel (NSC125973), and doxorubicin (NSC123127), were obtained from the National Cancer Institute (NCI) Developmental Therapeutics Program Chemical Repository. The FDA-approved anticancer drug set is available from the Developmental Therapeutics Program at https://dtp.cancer.gov/organization/dscb/obtaining/available plates.htm. […] The stock solutions were prepared in dimethyl sulfoxide (DMSO, Sigma-Aldrich, St. Louis, MO, cat. D2650), except for the platinum complexes which were prepared in saline (Quality Biological, Gaithersburg, MD, cat. 114-055-101), at 800-fold the tested concentration and stored at -70 degrees C prior to their use. All drugs and investigational agents were tested over a range starting from a high concentration at or near the clinical Cmax and decreasing in half-log increments. If the clinical Cmax for an agent had not been determined, the highest concentration tested was 10 microM.
Cell Culture. All cells were maintained in an incubator at 37 degrees C and 5% CO2 with 95% humidity. The PDC lines were cultured according to standard operating procedures established by the NCI PDMR. Briefly, all PDCs were thawed and cultured in Matrigel-coated flasks prepared with a working solution of 1X Ham's F-12 nutrient mix, without supplementation (Invitrogen, Waltham, MA, cat. 11765054), 100 U/mL penicillin-streptomycin (Invitrogen, cat. 15140122), and 2.5% Matrigel (Corning Inc., Corning, NY, cat. 354248) for the first three passages. The 947758-054-R-J2-PDC line was cultured in 6B/Colon 1A media, which includes advanced DMEM/F-12 (Thermo Fisher Scientific, cat. 12634028), 10 mM HEPES (Thermo Fisher Scientific, cat. 15630080), 1X GlutaMAX supplement (Thermo Fisher Scientific, cat. 35050061), 0.1 mg/mL primocin (InvivoGen, cat. ant-pm-2), 10% defined fetal bovine serum, heat inactivated (HyClone Laboratories Inc., cat. SH30070.03HI), 1.25 mM N-Acetyl-L-cysteine (Sigma-Aldrich, cat. A9165), 10 mM nicotinamide (Sigma-Aldrich, cat. N0636), 1X B-27 supplement (Thermo Fisher Scientific, cat. 17504044), 1X N-2 supplement (Thermo Fisher Scientific, cat. 17502048), and 10 microM Y-27632 dihydrochloride (Tocris Bioscience, cat. 1254). The 876862-298-R-J1-PDC was cultured in 6E media, which includes all 6B/Colon 1A media components plus 50% L-WRN conditioned media (ATCC, cat. CRL-3276), 50 ng/mL recombinant human EGF recombinant protein (hEGF; Thermo Fisher Scientific, cat. PHG0311), 10 ng/mL recombinant human fibroblast growth factor 10 (hGFG-10; PeproTech, cat. 100-26), 1 ng/mL recombinant human fibroblast growth factor 2 (hFGF-2; PeproTech, cat. 100-18B), and 1 µM prostaglandin E2 (PGE2; Tocris, cat. 2296). The 227483-062-R1-J1-PDC line was cultured in Panc media, containing all 6E components except hFGF-2, with the addition of 500 nM SB-431542 (Selleckchem, cat. S1067) and 10 nM gastrin (Tocris, cat. 3006). […]

Setting [1] is: curve of first compound, second compound 0.0316 µM.
Where [2] appears, read: curve of first compound, second compound 0.1 µM.
Where [3] appears, read: curve of first compound, second compound 0.316 µM.
Setting [4] is: curve of first compound, second compound 1 µM.
The mark [5] stands for this setting: curve of first compound, second compound 3.16 µM.
Setting [6] is: curve of first compound, second compound 10 µM.
Setting [7] is: second compound 0.0316 µM, first compound 0.0316 µM.
[8] abbreviates: second compound 0.0316 µM, first compound 0.1 µM.
[9] abbreviates: second compound 0.0316 µM, first compound 0.316 µM.
Setting [10] is: second compound 0.0316 µM, first compound 1 µM.
[11] abbreviates: second compound 0.0316 µM, first compound 3.16 µM.
Where [12] appears, read: second compound 0.0316 µM, first compound 10 µM.
Setting [13] is: second compound 0.1 µM, first compound 0.0316 µM.
[14] abbreviates: second compound 0.1 µM, first compound 0.1 µM.
Where [15] appears, read: second compound 0.1 µM, first compound 0.316 µM.
Setting [16] is: second compound 0.1 µM, first compound 1 µM.
Setting [17] is: second compound 0.1 µM, first compound 3.16 µM.
Setting [18] is: second compound 0.1 µM, first compound 10 µM.
Where [19] appears, read: second compound 0.316 µM, first compound 0.0316 µM.
[20] abbreviates: second compound 0.316 µM, first compound 0.1 µM.
The mark [21] stands for this setting: second compound 0.316 µM, first compound 0.316 µM.
[22] abbreviates: second compound 0.316 µM, first compound 1 µM.
[23] abbreviates: second compound 0.316 µM, first compound 3.16 µM.
[24] abbreviates: second compound 0.316 µM, first compound 10 µM.
[25] abbreviates: second compound 1 µM, first compound 0.0316 µM.
Where [26] appears, read: second compound 1 µM, first compound 0.1 µM.
Where [27] appears, read: second compound 1 µM, first compound 0.316 µM.
Setting [28] is: second compound 1 µM, first compound 1 µM.
Where [29] appears, read: second compound 1 µM, first compound 3.16 µM.
Setting [30] is: second compound 1 µM, first compound 10 µM.
Where [31] appears, read: second compound 3.16 µM, first compound 0.0316 µM.
[32] abbreviates: second compound 3.16 µM, first compound 0.1 µM.
Where [33] appears, read: second compound 3.16 µM, first compound 0.316 µM.
Where [34] appears, read: second compound 3.16 µM, first compound 1 µM.
[35] abbreviates: second compound 3.16 µM, first compound 3.16 µM.
Where [36] appears, read: second compound 3.16 µM, first compound 10 µM.
Setting [37] is: second compound 10 µM, first compound 0.0316 µM.
[38] abbreviates: second compound 10 µM, first compound 0.1 µM.
The mark [39] stands for this setting: second compound 10 µM, first compound 0.316 µM.
Setting [40] is: second compound 10 µM, first compound 1 µM.
[41] abbreviates: second compound 10 µM, first compound 3.16 µM.
Setting [42] is: second compound 10 µM, first compound 10 µM.

Where “and” joins values, the source holds several entries; their conditions need not be identical. Equal values may be shown once.
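Further: spheroids exposed to the drug combinations for seven days.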
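Wherever viability, T/C is given: percent viability relative to DMSO vehicle control wells taken as 100%.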

On to `C=CC(=O)N1CCN(c2nc(=O)n(-c3c(C)ccnc3C(C)C)c3nc(-c4c(O)cccc4F)c(F)cc23)C(C)C1` (stereo not given) + CNC(=O)c1ccc(Nc2nc(OC3CCCC3)c3c(-c4ccc5nc(C)oc5c4)c[nH]c3n2)c(OC)c1, for which the IC50 runs as follows: under setting [1], more than 10 µM; under setting [2], more than 10 µM; under setting [3], more than 10 µM; under setting [4], more than 10 µM; under setting [5], more than 10 µM; under setting [6], more than 10 µM. Further, the viability, T/C is 84.8% under setting [7]; 86.5% under setting [8]; 94.4% under setting [9]; 93.6% under setting [10]; 96.3% under setting [11]; 98.3% under setting [12]. Further, the viability, T/C under setting [13] is 79.6%; the viability, T/C under setting [14] is 71.6%; the viability, T/C under setting [15] was 72.6%; the viability, T/C under setting [16] is 79.7%; the viability, T/C under setting [17] was 85.2%; the viability, T/C under setting [18] was 77.5%. The viability, T/C reads like this: under setting [19], 75.9%; under setting [20], 76.4%; under setting [21], 75.8%; under setting [22], 75.4%; under setting [23], 80.5%; under setting [24], 82.8%. For the same compound, the viability, T/C is, setting by setting: under setting [25], 81.2%; under setting [26], 73.7%; under setting [27], 74.3%; under setting [28], 87.5%; under setting [29], 90%; under setting [30], 86.4%. In addition, the viability, T/C is, setting by setting: under setting [31], 68.5%; under setting [32], 71.3%; under setting [33], 65.7%; under setting [34], 86.7%; under setting [35], 80.5%; under setting [36], 76.7%. Moreover, the viability, T/C was 71.2% under setting [37]; 78.4% under setting [38]; 69.6% under setting [39]; 74.8% under setting [40]; 81% under setting [41]; 91.2% under setting [42].

Turning to `CN1CCN(c2cc(C(=O)Nc3cc4cc(-c5cnn(C)c5)ccc4cn3)ccn2)CC1`, the viability, T/C runs as follows: (compound 1 µM) 1.16% [middle of 11 runs]; (compound 3.16 µM) 0.72% [middle of 10 runs]; (compound 10 µM) 0.46% [middle of 10 runs]. Under “compound alone, run of 07/31/2023”, the IC50 was 529 nM [middle of 10 runs].

Regarding `CC(=O)O[C@H]1C(=O)[C@@]2(C)[C@H]([C@H](OC(=O)c3ccccc3)[C@]3(O)C[C@H](OC(=O)[C@H](O)[C@@H](NC(=O)c4ccccc4)c4ccccc4)C(C)=C1C3(C)C)[C@]1(OC(C)=O)CO[C@@H]1C[C@@H]2O` + CNC(=O)c1ccc(Nc2nc(OC3CCCC3)c3c(-c4ccc5nc(C)oc5c4)c[nH]c3n2)c(OC)c1, the IC50 was 0.14 µM under setting [1]; more than 10 µM under setting [2]; more than 10 µM under setting [3]; more than 10 µM under setting [4]; more than 10 µM under setting [5]; more than 10 µM under setting [6]. Also, the viability, T/C is 80% under setting [7]; 59.4% under setting [8]; 18.2% under setting [9]; 21.5% under setting [10]; 31.4% under setting [11]; 37.7% under setting [12]. The viability, T/C under setting [13] was 81.2%; the viability, T/C under setting [14] was 66%; the viability, T/C under setting [15] was 50.7%; the viability, T/C under setting [16] is 78.5%; the viability, T/C under setting [17] is 72.9%; the viability, T/C under setting [18] was 66.5%. The viability, T/C runs as follows: under setting [19], 67.9%; under setting [20], 81%; under setting [21], 84.8%; under setting [22], 90.6%; under setting [23], 78.8%; under setting [24], 68.4%. Further, the viability, T/C reads like this: under setting [25], 91.2%; under setting [26], 85.9%; under setting [27], 77.5%; under setting [28], 72.5%; under setting [29], 96.3%; under setting [30], 66.7%. Besides, the viability, T/C under setting [31] was 77%; the viability, T/C under setting [32] is 87.8%; the viability, T/C under setting [33] was 89.5%; the viability, T/C under setting [34] was 90.5%; the viability, T/C under setting [35] is 83.3%; the viability, T/C under setting [36] was 74.2%. The viability, T/C is 67.5% under setting [37]; 82.3% under setting [38]; 79.1% under setting [39]; 79% under setting [40]; 81.1% under setting [41]; 85.8% under setting [42].

As for `C=CC(=O)Nc1cc(Nc2nccc(-c3cn(C)c4ccccc34)n2)c(OC)cc1N(C)CCN(C)C`, the viability, T/C runs as follows: (compound 0.000949 µM) 92.5% and 102%; (compound 0.003 µM) 91.5% and 98.6%; (compound 0.00949 µM) 99.7% and 103%; (compound 0.03 µM) 96.9% and 87.8%; (compound 0.0949 µM) 86% and 93.7%; (compound 0.3 µM) 76.8% and 82.2%. Further, the IC50 (curve of compound) is more than 0.3 µM.

Values taken from PubChem BioAssay AID2060613 (Molecular Pharmacology Branch, DTP, NCI, 2025).
